Experimental data published in patent EP1914236A1 (Ortho-McNeil Pharmaceutical, Inc., priority 2002, dated 2003).

Key:
[1] = biological target: T1, human B2 bradykinin receptors (Homo sapiens, UniProt P30411); test: Bradykinin B2 (BK2) Receptor Binding Assay; settings: membranes of CHO-K1 cells transfected with human B2 bradykinin receptors; ~0.25 nM [3H]NPC17731; 60 min at 25°C
T1 construct: purchased Receptor Biology, Inc. (Baltimore, MD); host or cells: CHO-K1 cells transfected with the human B2 receptor (membranes)
T1 sequence (P30411 1-391): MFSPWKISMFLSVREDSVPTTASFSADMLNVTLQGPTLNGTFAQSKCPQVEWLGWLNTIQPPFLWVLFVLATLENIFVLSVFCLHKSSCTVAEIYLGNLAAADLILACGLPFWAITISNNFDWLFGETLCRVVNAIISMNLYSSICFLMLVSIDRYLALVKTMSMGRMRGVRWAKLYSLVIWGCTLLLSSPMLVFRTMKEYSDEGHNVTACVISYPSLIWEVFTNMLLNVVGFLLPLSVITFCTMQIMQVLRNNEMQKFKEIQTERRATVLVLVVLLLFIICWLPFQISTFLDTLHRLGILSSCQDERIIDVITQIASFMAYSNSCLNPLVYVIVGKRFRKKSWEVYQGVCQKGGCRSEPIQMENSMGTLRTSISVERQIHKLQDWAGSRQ
Description: Cell membranes of CHO-K1 cells transfected with human B2 bradykinin receptors (CH)-hB2) were purchased from Receptor Biology, Inc. (Baltimore,MD).
Samples were harvested on a Brandel Cell Harvester on to Wallac filtermat B sheets (96 sample format), and washed three times with 2 mL cold HEPES-buffer (10 mM, pH 7.5), and dried in a microwave oven.
The data were used to calculate either the % inhibition compared to control binding (when only a single concentration of test compound was evaluated) or a Ki value (when a range of concentrations were tested). Background was subtracted from mean cpm values and % inhibition was calculated as: [(total dpm-test compound dpm)/(total dpm-nonspecific dpm)]x100. Kd and Ki values were calculated using GraphPad PRISM data analysis program.

CHO-hB2 cell membranes = biological target: T2, CHO-hB2 cell membranes (Homo sapiens, UniProt P30411); test: [35S]GTPγS Binding Assay in CHO-hB2 Cell Membranes; type: biochemical; settings: for Functional Activity (% Basal): number in parentheses, bradykinin-stimulated [35S]GTPγS binding, test concentration not given; for Functional Activity: word part of the cell, effect on bradykinin-stimulated [35S]GTPγS binding
T2 construct: purchased Receptor Biology, Inc. (Baltimore, MD); host or cells: CHO-hB2 cells (membranes)
T2 sequence (P30411 1-391): T1 sequence (P30411 1-391)
Description: CHO-hB2 cell membranes were purchased from Receptor Biology, Inc. (Baltimore,MD). 10 mg/mL of membrane protein was suspended in 10 mM TRIS-HC pH 7.2, 2 mM EDTA, 10% sucrose.
Membranes were added into 15 mL ice cold binding assay buffer. The assay buffer contained 50 mM HEPES, pH 7.6, 5 mM MgCl2, 100 mM NaCl, 1 mM DTT and 1 mM EDTA. The membrane suspension was homogenized twice with a Polytron and centrifuged at 3000 rpm for 10 min. The supernatant was then centrifuged at 18,000 rpm for 20 min. The pellet was saved in a tube and resuspended.
The pellet membranes (40 µg/mL) were preincubated with SPA (scintillation proximity assay) beads (20 mg/mL) at 25C° for 45 min in the assay buffer. The SPA beads (5 mg/mL) coupled with membranes (10 µg/mL) were then incubated with 0.5 nM [^35S]GTPγS in the same HEPES buffer containing 50 µM GDP in total volume of 200 µL. Bradykinin was used to stimulate [^35S]GTPγS binding. Varying concentrations of drugs were incubated with bradykinin to inhibit bradykinin-stimulated [^35S]GTPγS binding. The basal binding was tested in the absence of bradykinin and no specific binding was tested in the present 10 µM unlabeled GTPγS. The radioactivity was quantified on a Packard Top Count, and calculated. % of Basal = (stimulated binding-non specific binding)/(basal binding-non specific binding) × 100. [formula]

| Ki [1] [µM] | Functional Activity (% Basal) (CHO-hB2 cell membranes) | Functional Activity (CHO-hB2 cell membranes) | SMILES |
| --- | --- | --- | --- |
| 0.055 | 1 | No effect | CCN(C(=O)Cc1ccc(C(=O)c2ccc(C#N)cc2)n1C)c1ccc(Cl)c(COc2cccc3ccc(C)nc23)c1Cl [Compound 18] |
| 0.189 | 4 | Weak antagonist | COc1ccc(C(=O)c2ccc(CC(=O)N(C)c3ccc(Cl)c(COc4cccc5ccc(C)nc45)c3Cl)n2C)cc1 [Compound 68] |
| 0.071 | 61 | Antagonist | COc1ccc(C(=O)c2ccc(CC(=O)N(C)c3ccc(Cl)c(COc4cccc5ccc(C)nc45)c3Cl)[nH]2)cc1 [Compound 5] |
| 0.085 | 74 | Antagonist | CC(=O)Nc1cccc(C(=O)c2ccc(CC(=O)N(C)c3ccc(Cl)c(COc4cccc5ccc(C)nc45)c3Cl)n2C)c1 [Compound 72] |
| 0.393 | 12 | Weak antagonist | Cc1ccc2cccc(OCc3c(Cl)ccc(N(C)C(=O)Cc4ccc(C(=O)c5cccs5)n4C)c3Cl)c2n1 [Compound 61] |
| 1.35 | 24 | Antagonist | Cc1ccc2cccc(OCc3c(Cl)ccc(N(C)C(=O)Cc4cc(C(=O)c5ccc(C#N)cc5)n(C)c4)c3Cl)c2n1 [Compound 4, 2-[5-(4-Cyano-benzoyl)-1-methyl-1H-pyrrol-3-yl]-N-[2,4-dichloro-3-(2-methyl-quinolin-8-yloxymethyl)-phenyl]-N-methyl-acetamide] |
| 0.304 | 1 | No effect | Cc1ccc2cccc(OCc3c(Cl)ccc(N(C)C(=O)CCc4ccc(C(=O)c5cccs5)n4C)c3Cl)c2n1 [Compound 81] |
| 0.074 | 79 | Antagonist | Cc1ccc2cccc(OCc3c(Cl)ccc(N(C)C(=O)Cc4ccc(C(=O)c5ccc(C#N)nc5)n4C)c3Cl)c2n1 [Compound 71] |
| 0.168 | 45 | Antagonist | Cc1ccc2cccc(OCc3c(Cl)ccc(N(C)C(=O)CCc4ccc(C(=O)c5ccncc5)n4C)c3Cl)c2n1 [Compound 83] |
| 0.291 | 1 | No effect | Cc1ccc2cccc(OCc3c(Cl)ccc(N(C)C(=O)Cc4ccc(C(=O)CN5CCC(Cc6ccccc6)CC5)n4C)c3Cl)c2n1 [Compound 59] |
| 0.048 | 1 | No effect | Cc1ccc2cccc(OCc3c(Cl)ccc(N(C)C(=O)Cc4ccc(C(=O)c5ccc(C#N)cc5)n4CC4CC4)c3Cl)c2n1 [Compound 11, 2-[5-(4-Cyano-benzoyl)-1-cyclopropylmethyl-1H-pyrrol-2-yl]-N-[2,4-dichloro-3-(2-methyl-quinolin-8-yloxymethyl)-phenyl]-N-methyl-acetamide] |
| 0.151 | 35 | Antagonist | Cc1ccc2cccc(OCc3c(Cl)ccc(N(C)C(=O)Cc4ccc(C(=O)c5ccc([N+](=O)[O-])c(C)c5)n4C)c3Cl)c2n1 [Compound 65, N-[2,4-Dichloro-3-(2-methyl-quinolin-8-yloxymethyl)-phenyl]-N-methyl-2-[1-methyl-5-(3-methyl-4-nitro-benzoyl)-1H-pyrrol-2-yl]-acetamide] |
| 0.304 | 57 | Antagonist | Cc1ccc2cccc(OCc3c(C)ccc(N(C)C(=O)CCc4ccc(C(=O)c5cccnc5)n4C)c3C)c2n1 [Compound 84] |
| 0.45 | 50 | Antagonist | Cc1ccc2cccc(OCc3c(C)ccc(N(C)C(=O)CCc4ccc(C(=O)c5ccncc5)n4C)c3C)c2n1 [Compound 82] |
| 0.064 | 78 | Antagonist | Cc1ccc2cccc(OCc3c(Cl)ccc(N(C)C(=O)Cc4ccc(C(=O)c5ccc([S+](C)[O-])cc5)n4C)c3Cl)c2n1 (stereo not shown) [Compound 73, N-[2,4-Dichloro-3-(2-methyl-quinolin-8-yloxymethyl)-phenyl]-2-[5-(4-methanesuifinyl-benzoyl)-1-methyl-1H-pyrrol-2-yl]-N-methyl-acetamide] |
| 0.029 | 1 | No effect | CCCCn1c(CC(=O)N(C)c2ccc(Cl)c(COc3cccc4ccc(C)nc34)c2Cl)ccc1C(=O)c1ccc(C#N)cc1 [Compound 10] |
| 0.015 | 65 | Antagonist | Cc1ccc2cccc(OCc3c(Cl)ccc(N(C)C(=O)CCc4ccc(C(=O)c5cccnc5)n4C)c3Cl)c2n1 [Compound 85] |
| 0.204 | 59 | Antagonist | Cc1ccc2cccc(OCc3c(Cl)ccc(N(C)C(=O)Cc4ccc(C(=O)c5ccc(C(=O)N(C)C)cc5)n4C)c3Cl)c2n1 [Compound 62, 4-[5-({[2,4-Dichloro-3-(2-methyl-quinolin-8-yloxymethyl)-phenyl]-methylcarbamoyl}-methyl)-1-methyl-1H-pyrrole-2-carbonyl]-N,N-dimethyl-benzamide] |
| 0.178 | 33 | Antagonist | Cc1ccc2cccc(OCc3c(Cl)ccc(N(C)C(=O)Cc4ccc(C(=O)c5ccc([N+](=O)[O-])cc5)n4C)c3Cl)c2n1 [Compound 63] |
| 0.161 | 45 | Antagonist | COC(=O)c1ccc(C(=O)c2ccc(CC(=O)N(C)c3ccc(Cl)c(COc4cccc5ccc(C)nc45)c3Cl)n2C)cc1 [Compound 64] |
| 0.054 | 1 | No effect | Cc1ccc2cccc(OCc3c(Cl)ccc(N(C)C(=O)Cc4ccc(C(=O)c5ccc(C#N)cc5)n4CC(C)C)c3Cl)c2n1 [Compound 12] |
| 0.141 | 12 | Weak antagonist | Cc1ccc2cccc(OCc3c(C)ccc(N(C)C(=O)CCc4ccc(C(=O)c5cccs5)n4C)c3C)c2n1 [Compound 80] |
| 0.044 | 1 | No effect | Cc1ccc2cccc(OCc3c(Cl)ccc(N(C)C(=O)Cc4ccc(C(=O)c5ccc(C#N)cc5)n4CCC(C)C)c3Cl)c2n1 [Compound 13] |

| SMILES | Ki [1] [µM] | Functional Activity (% Basal) (CHO-hB2 cell membranes) | Functional Activity (CHO-hB2 cell membranes) |
| --- | --- | --- | --- |
| CC(=O)Nc1ccc(C=CC(=O)NC[C@H]2CCCN2c2ccc(C)c(COc3cccc4ccc(C)nc34)c2C)cn1 [Compound 112, 3-(6-Acetytamino-pyridin-3-yl)-N-{1-[2,4-dimethyl-3-(2-methyl-quinolin-8-yloxymethyl)-phenyl]-pyrrolidin-2-(R)ylmethyl}-acrylamide.] | 0.054 | 59 | Antagonist |
| Cc1ccc2cccc(OCc3c(Cl)ccc(NC(=O)Cc4ccc(C(=O)c5ccc(C#N)cc5)n4C)c3Cl)c2n1 [Compound 15] |  |  | Weak antagonist |
